We go through eight compounds from patent publication US20240246964A1 (Arbutus Biopharma Corporation, priority 2021, published 2024).

SMILES strings stand for the structures.

One may read the EC50 as the concentration that produces a half-maximal response.

This test deals with human PD-L1 (Homo sapiens (Human), UniProt Q9NZQ7). The test is described as follows: T cell activation luciferase reporter cell culture system (T Cell Activation Assay). Type of test: cell-based. The conditions noted are these: luciferase reporter assay; PD-L1 aAPC/CHO-K1 cells with PD-1 effector Jurkat T cells.
Sequence of human PD-L1 (Q9NZQ7 19-290): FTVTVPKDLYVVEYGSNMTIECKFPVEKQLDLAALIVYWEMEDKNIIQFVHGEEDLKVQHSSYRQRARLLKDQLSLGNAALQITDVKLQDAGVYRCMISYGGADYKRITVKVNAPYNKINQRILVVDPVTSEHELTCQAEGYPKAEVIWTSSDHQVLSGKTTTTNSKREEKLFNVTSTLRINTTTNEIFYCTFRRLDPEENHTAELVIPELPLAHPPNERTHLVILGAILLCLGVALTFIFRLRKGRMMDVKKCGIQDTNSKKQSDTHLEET
In the case of `COc1cc(-c2nccc(-c3cccc(-c4ccc(CNC5CCN(C(C)=O)CC5)c(OC)n4)c3Cl)c2Cl)ccc1CN1CCC(CO)CC1` [Example 508, 1-(4-(((6-(2-Chloro-3-(3-chloro-2-(4-((4-(hydroxymethyl)piperidin-1-yl)methyl)-3-methoxyphenyl)pyridin-4-yl)phenyl)-2-methoxypyridin-3-yl)methyl)amino)piperidin-1-yl)ethan-1-one], the EC50 was 35.1 nM.

Regarding `COc1cc(-c2nccc(-c3cccc(-c4ccc(CNC[C@H](C)O)c(OC)n4)c3C(F)(F)F)c2Cl)ccc1CNC[C@H](C)O` [Example 580, (S)-1-(((6-(3-(3-Chloro-2-(4-((((S)-2-hydroxypropyl)amino)methyl)-3-methoxyphenyl)pyridin-4-yl)-2-(trifluoromethyl)phenyl)-2-methoxypyridin-3-yl)methyl)amino)propan-2-ol], the EC50 was at least 10000 nM.

`COc1cc(-c2ccnc(-c3cccc(-c4ccc(CN5CC6(CNC(=O)C6)C5)c(OC)n4)c3Cl)c2Cl)ccc1CN1CC2(CNC(=O)C2)C1` [Example 622, 2-(4-(3-Chloro-2-(2-chloro-3-(6-methoxy-5-((7-oxo-2,6-diazaspiro[3.4]octan-2-yl)methyl)pyridin-2-yl)phenyl)pyridin-4-yl)-2-methoxybenzyl)-2,6-diazaspiro[3.4]octan-7-one] registered a 50% effective concentration (EC50) of 216 nM.

For `COc1cc(-c2nccc(-c3cccc(-c4ccc(CNC5CC6(COC6)C5)c(OC)n4)c3Cl)c2Cl)cc2c1CN(CCCF)CC2` [Example 251, N-((6-(2-Chloro-3-(3-chloro-2-(2-(3-fluoropropyl)-8-methoxy-1,2,3,4-tetrahydroisoquinolin-6-yl)pyridin-4-yl)phenyl)-2-methoxypyridin-3-yl)methyl)-2-oxaspiro[3.3]heptan-6-amine], a half-maximal response (EC50) required 117 nM.

As for `COc1cc(-c2ncnc(-c3cccc(-c4ccc(CN[C@H]5C[C@@H](O)C5)c(OC)n4)c3Cl)c2Cl)ccc1CN[C@H]1C[C@@H](O)C1` [Example 592, (1s,3s)-3-(((6-(2-Chloro-3-(5-chloro-6-(4-((((1s,3s)-3-hydroxycyclobutyl)amino)methyl)-3-methoxyphenyl)pyrimidin-4-yl)phenyl)-2-methoxypyridin-3-yl)methyl)amino)cyclobutan-1-ol], the concentration for a half-maximal effect (EC50) came out at 86.4 nM.

Consider `COc1nc(-c2cccc(-c3ccnc(-c4cc5c(OC)nc(CNCCO)nn5c4)c3Cl)c2Cl)ccc1CNC1CCN(C(C)=O)CC1` [Example 661, 1-(4-(((6-(2-Chloro-3-(3-chloro-2-(2-(((2-hydroxyethyl)amino)methyl)-4-methoxypyrrolo[2,1-f][1,2,4]triazin-6-yl)pyridin-4-yl)phenyl)-2-methoxypyridin-3-yl)methyl)amino)piperidin-1-yl)ethan-1-one], for which the EC50 was 820 nM.

Take `COc1cc(-c2nccc(-c3cccc(-c4ccc5c(CN(C)C6CCN(C(C)=O)CC6)cn(C)c5n4)c3Cl)c2Cl)ccc1CNC1CCN(C(C)=O)CC1` [Example 264, 1-(4-((4-(4-(3-(3-(((1-acetylpiperidin-4-yl)(methyl)amino)methyl)-1-methyl-1H-pyrrolo[2,3-b]pyridin-6-yl)-2-chlorophenyl)-3-chloropyridin-2-yl)-2-methoxybenzyl)amino)piperidin-1-yl)ethan-1-one]: a half-maximal response (EC50) required 47.7 nM.

Take `COc1nc(O[C@H]2CCc3c(-c4nccc(-c5ccc6c(CNC[C@@H]7CCC(=O)N7)cn(C)c6n5)c4Cl)cccc32)c(C(F)(F)F)cc1CNC[C@@H]1CCC(=O)N1` [Example 545, (S)-5-((((6-(3-Chloro-2-((S)-1-((6-methoxy-5-(((((S)-5-oxopyrrolidin-2-yl)methyl)amino)methyl)-3-(trifluoromethyl)pyridin-2-yl)oxy)-2,3-dihydro-1H-inden-4-yl)pyridin-4-yl)-1-methyl-1H-pyrrolo[2,3-b]pyridin-3-yl)methyl)amino)methyl)pyrrolidin-2-one]: the response was half-maximal at 21.3 nM (EC50).
